Calls of active or inactive are those of the source. No cut-off for these calls is given here.
Tests used:
[1] = target: Alpha-galactosidase (Coffea arabica) (UniProt Q5DUH8); test: Inhibitory activity against alpha-galactosidase in coffee beans at 1 mM
[2] = target: T1, Alpha-galactosidase (Escherichia coli K-12) (UniProt P06720); test: Inhibitory activity against alpha-galactosidase in Escherichia coli at 1 mM
T1 sequence (whole entry): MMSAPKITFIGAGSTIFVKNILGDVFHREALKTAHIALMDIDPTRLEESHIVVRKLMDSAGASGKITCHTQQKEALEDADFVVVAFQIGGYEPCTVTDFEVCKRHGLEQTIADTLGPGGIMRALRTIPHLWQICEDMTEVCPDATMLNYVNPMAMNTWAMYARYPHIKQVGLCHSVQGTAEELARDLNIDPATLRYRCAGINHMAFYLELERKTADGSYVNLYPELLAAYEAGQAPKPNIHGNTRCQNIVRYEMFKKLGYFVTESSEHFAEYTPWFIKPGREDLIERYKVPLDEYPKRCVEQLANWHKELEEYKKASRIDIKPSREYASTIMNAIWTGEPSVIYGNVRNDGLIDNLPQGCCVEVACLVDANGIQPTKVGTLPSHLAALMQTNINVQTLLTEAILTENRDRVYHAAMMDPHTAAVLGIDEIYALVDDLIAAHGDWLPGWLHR

[3] = target: T2, Beta-galactosidase (Bos taurus) (UniProt Q58D55); test: Inhibitory activity against beta-galactosidase in bovine liver at 1 mM
T2 sequence (whole entry): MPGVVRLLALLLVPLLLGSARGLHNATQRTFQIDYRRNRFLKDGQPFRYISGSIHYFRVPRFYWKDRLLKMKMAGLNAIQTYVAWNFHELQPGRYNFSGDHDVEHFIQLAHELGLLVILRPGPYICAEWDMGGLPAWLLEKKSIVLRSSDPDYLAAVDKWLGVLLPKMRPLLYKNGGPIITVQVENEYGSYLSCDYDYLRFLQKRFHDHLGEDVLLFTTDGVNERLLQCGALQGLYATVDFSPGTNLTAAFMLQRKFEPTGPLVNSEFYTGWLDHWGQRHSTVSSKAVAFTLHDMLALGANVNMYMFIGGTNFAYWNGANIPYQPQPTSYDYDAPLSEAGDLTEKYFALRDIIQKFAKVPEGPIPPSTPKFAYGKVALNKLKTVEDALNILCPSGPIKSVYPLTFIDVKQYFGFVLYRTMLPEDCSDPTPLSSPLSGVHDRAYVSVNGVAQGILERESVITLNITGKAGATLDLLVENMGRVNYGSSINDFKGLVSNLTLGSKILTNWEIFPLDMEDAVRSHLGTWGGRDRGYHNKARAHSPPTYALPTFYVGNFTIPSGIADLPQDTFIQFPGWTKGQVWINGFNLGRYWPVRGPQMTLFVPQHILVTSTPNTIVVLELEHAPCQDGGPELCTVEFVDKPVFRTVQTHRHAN

[4] = target: T3, Beta-galactosidase/ beta-glucuronidase (Aspergillus oryzae (strain ATCC 42149 / RIB 40)) (UniProt Q2TXB7); test: Inhibitory activity against beta-galactosidase in Aspergillus oryzae at 1 mM
T3 sequence (whole entry): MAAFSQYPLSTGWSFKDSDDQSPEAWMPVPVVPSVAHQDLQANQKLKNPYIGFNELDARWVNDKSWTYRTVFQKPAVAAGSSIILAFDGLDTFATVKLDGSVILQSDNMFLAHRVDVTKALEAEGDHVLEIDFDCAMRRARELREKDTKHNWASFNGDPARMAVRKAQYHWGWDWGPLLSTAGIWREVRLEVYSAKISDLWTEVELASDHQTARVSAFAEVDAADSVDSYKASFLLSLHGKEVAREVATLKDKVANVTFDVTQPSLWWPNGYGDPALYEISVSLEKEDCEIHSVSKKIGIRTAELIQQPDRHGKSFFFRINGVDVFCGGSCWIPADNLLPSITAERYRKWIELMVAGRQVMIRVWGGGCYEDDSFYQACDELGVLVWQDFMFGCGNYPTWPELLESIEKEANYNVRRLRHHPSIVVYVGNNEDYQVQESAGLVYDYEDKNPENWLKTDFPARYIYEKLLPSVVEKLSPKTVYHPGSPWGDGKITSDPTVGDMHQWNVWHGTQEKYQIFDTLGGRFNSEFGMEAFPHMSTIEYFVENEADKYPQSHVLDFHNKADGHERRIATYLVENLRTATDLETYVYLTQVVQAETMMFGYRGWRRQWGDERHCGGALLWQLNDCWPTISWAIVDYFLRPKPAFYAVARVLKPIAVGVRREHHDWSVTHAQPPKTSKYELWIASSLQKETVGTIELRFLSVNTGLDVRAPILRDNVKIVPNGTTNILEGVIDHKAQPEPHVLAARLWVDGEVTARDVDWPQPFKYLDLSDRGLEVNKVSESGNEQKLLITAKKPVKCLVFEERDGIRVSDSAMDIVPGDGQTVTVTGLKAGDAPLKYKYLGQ

[5] = target: T4, Tissue alpha-L-fucosidase (Bos taurus) (UniProt Q2KIM0); test: Inhibitory activity against alpha-L-fucosidase in bovine brain at 1 mM
T4 sequence (whole entry): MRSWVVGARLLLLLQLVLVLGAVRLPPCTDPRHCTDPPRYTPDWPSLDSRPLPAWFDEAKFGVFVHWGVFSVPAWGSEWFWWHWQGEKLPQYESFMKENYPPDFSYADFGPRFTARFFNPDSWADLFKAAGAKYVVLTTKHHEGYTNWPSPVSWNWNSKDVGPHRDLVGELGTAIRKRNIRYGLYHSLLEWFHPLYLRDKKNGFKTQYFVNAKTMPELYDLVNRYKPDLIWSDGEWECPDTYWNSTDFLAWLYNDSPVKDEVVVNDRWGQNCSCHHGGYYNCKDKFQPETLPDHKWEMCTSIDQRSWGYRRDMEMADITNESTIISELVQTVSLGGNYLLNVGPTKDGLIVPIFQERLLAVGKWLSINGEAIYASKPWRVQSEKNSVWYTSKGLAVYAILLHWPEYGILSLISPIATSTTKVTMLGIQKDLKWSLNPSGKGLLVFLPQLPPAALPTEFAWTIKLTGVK

[6] = target: Alpha-galactosidase (Oryza sativa Japonica Group) (UniProt Q9FXT4); test: Inhibitory activity against alpha-galactosidase in rice at 1 mM
[7] = target: Glucoamylase (Aspergillus niger) (UniProt P69328); test: Inhibitory activity against amyloglucosidase in Aspergillus niger at 1 mM
[8] = target: T5, Glucoamylase 1 (Rhizopus oryzae) (UniProt P07683); test: Inhibitory activity against amyloglucosidase in Rhizopus mold at 1 mM
T5 sequence (whole entry): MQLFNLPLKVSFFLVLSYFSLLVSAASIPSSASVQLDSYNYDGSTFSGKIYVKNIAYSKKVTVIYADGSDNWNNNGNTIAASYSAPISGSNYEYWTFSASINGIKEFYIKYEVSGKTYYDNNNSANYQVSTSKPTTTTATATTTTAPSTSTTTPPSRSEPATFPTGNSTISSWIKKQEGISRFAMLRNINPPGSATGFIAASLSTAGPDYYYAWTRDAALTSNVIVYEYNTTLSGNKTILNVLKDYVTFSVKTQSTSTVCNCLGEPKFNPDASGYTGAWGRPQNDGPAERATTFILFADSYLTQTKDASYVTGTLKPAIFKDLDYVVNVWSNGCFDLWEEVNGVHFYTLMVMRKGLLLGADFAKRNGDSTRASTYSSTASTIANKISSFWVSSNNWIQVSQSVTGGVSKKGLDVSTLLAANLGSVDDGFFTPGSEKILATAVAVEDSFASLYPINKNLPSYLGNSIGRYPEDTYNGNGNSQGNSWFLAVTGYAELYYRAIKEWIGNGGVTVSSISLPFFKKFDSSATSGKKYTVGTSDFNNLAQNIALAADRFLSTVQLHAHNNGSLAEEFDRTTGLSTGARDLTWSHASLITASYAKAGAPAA

[9] = target: T6, Exo-1,4-beta-xylosidase xlnD (Aspergillus niger) (UniProt O00089); test: Inhibitory activity against beta-xylosidase in Aspergillus niger at 1 mM
T6 sequence (whole entry): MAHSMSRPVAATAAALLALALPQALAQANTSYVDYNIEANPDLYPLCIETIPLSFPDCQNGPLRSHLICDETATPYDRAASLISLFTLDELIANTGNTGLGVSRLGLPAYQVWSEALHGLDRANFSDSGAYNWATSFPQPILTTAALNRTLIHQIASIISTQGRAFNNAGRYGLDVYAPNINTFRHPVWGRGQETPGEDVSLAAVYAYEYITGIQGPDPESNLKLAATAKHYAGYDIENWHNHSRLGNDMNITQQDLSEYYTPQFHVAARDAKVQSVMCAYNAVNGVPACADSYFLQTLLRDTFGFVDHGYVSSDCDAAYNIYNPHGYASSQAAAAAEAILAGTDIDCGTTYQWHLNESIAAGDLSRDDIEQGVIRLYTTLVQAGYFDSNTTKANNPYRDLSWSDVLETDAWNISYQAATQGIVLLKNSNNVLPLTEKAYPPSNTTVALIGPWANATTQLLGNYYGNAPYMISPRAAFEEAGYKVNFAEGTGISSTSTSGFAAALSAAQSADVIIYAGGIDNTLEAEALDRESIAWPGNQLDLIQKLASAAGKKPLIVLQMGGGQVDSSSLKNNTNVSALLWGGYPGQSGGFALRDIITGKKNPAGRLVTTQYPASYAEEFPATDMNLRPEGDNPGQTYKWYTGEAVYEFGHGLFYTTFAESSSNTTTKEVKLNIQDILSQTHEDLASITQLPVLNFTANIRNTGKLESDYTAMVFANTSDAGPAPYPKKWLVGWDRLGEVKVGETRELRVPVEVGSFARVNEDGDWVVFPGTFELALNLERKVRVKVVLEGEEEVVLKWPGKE

Saccharomyces cerevisiae = test: Inhibitory activity against alpha-glucosidase in yeast; settings: concentration not given here
[10] = Inhibitory activity against beta-mannosidase in Helix pomatia at 1 mM
[11] = system: Beta-hexosaminidase (Canavalia ensiformis); test: Inhibitory activity against beta-N-acetylglucosaminidase in jack beans at 1 mM
[12] = system: Beta-hexosaminidase (Bos taurus); test: Inhibitory activity against beta-N-acetylglucosaminidase in bovine kidney at 1 mM

Glucoamylase (Aspergillus niger), sequence (P69328 whole entry): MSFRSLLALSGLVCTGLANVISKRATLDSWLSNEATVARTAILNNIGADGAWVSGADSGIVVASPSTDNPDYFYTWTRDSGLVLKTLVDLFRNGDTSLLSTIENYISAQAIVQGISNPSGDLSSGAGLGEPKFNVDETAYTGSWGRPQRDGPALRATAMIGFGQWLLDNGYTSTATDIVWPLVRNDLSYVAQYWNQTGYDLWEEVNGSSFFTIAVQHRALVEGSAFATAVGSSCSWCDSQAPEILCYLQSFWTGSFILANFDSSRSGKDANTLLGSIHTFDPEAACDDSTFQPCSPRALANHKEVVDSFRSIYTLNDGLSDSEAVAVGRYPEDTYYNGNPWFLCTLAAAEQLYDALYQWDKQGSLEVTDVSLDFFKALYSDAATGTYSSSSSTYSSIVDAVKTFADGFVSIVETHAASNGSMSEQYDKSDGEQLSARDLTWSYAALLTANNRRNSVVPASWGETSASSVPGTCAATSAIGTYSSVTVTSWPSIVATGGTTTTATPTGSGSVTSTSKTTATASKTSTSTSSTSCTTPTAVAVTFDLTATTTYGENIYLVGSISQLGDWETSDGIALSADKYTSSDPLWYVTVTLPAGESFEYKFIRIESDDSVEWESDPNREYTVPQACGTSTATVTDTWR
Alpha-galactosidase (Coffea arabica), sequence (Q5DUH8 as listed by the source): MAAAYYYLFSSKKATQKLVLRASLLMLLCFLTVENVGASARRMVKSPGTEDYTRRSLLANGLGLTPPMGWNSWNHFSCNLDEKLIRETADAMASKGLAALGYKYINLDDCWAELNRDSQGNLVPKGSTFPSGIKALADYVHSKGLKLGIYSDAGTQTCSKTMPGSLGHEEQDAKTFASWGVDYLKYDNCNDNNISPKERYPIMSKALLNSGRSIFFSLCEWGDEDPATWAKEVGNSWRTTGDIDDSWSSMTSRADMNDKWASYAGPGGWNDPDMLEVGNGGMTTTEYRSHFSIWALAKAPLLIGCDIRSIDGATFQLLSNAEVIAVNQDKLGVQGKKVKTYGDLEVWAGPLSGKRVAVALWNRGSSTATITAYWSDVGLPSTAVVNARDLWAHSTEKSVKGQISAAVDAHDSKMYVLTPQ
Alpha-galactosidase (Oryza sativa Japonica Group), sequence (Q9FXT4 whole entry): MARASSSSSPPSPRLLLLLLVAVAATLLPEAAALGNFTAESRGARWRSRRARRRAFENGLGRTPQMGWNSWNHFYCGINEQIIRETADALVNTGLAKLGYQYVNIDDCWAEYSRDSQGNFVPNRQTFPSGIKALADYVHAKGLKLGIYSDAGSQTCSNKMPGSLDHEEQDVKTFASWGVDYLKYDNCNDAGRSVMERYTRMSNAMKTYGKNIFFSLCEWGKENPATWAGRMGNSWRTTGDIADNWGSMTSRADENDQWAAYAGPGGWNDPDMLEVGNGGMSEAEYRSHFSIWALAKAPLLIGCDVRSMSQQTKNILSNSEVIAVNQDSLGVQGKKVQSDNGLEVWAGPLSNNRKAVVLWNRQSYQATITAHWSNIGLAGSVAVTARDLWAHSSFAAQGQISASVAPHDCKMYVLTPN

Row | Activity [1] | Activity [2] | Activity [3] | Activity [4] | Activity [5] | Activity [6] | Activity [7] | Activity [8] | Activity [9] | inhibition (Saccharomyces cerevisiae) [%] | Activity [10] | Activity [11] | Activity [12] | Compound
1 | inactive | inactive | inactive | inactive | inactive | inactive | inactive | inactive | inactive | 51 | inactive | inactive | inactive | CC(C)[C@@H]1NC(=O)C(C)(O)C1O (some centres not stated)
2 | inactive | inactive | inactive | inactive | inactive | inactive | inactive | inactive | inactive | 45 | inactive | inactive | inactive | CC1(O)C(=O)N2CCCC2C1O (configuration not stated)
3 | inactive | inactive | inactive | inactive | inactive | inactive | inactive | inactive | inactive | 48 | inactive | inactive | inactive | C[C@@H]1NC(=O)C(C)(O)C1O (some centres not stated)
4 | inactive | inactive | inactive | inactive | inactive | inactive | inactive | inactive | inactive | 46 | inactive | inactive | inactive | C[C@@H]1CNC(=O)C(C)(O)C1O (some centres not stated)

From ChEMBL document CHEMBL1148566, “Stereoselective synthesis and glycosidase inhibitory activity of 3,4-dihydroxy-pyrrolidin-2-one, 3,4-dihydroxy-piperidin-2-one and 1,2-dihydroxy-pyrrolizidin-3-one” (Bioorg Med Chem Lett, 2006)
